From ChEMBL document CHEMBL1201862, “PubChem BioAssay data set” (2004)
The source made the active and inactive calls.

Tests used:
[1] = test system: Streptococcus sp. 'group A'; assay: growth inhibition of control SK(-) GAS strain, dose response, counter-screen for streptokinase expression inhibitor project, luminescence, kanamycin, BacTiterGlo, confirmation (AID 1900); format: functional, organism-based
[2] = molecular target: T1, Streptokinase A (Streptococcus pyogenes serotype M1, UniProt P10520); assay: S. pyogenes streptokinase expression inhibitors, potency, dose response, plasminogen activation absorbance, OD405 (AID 1914); format: functional, Streptococcus pyogenes M1 GAS;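 note: secreted streptokinase activity via plasminogen activation per viability signal from cell pellet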
T1 sequence (P10520 whole entry): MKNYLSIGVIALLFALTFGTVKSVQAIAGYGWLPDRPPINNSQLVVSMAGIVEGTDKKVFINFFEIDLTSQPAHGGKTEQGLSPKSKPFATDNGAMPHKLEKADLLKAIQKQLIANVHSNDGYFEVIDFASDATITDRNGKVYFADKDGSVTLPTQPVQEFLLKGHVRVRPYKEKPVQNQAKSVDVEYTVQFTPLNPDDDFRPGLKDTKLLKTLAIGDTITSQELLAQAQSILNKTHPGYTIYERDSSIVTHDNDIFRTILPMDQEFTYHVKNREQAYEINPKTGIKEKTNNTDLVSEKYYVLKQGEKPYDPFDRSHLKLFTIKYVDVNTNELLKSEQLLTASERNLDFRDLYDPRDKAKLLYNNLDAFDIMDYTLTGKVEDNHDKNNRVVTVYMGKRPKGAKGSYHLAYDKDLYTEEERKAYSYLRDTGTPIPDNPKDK

[3] = test system: Streptococcus; assay: Group A Streptococcus viability loss, dose response, counter-screen for streptokinase expression inhibitor project, luminescence, BacTiterGlo (AID 1915); format: functional, organism-based;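 note: potency for reduction of bacterial viability or growth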
[4] = Luminescence Cell-Based Dose Retest to Confirm Inhibitors of Cancer Stem Cells. [Related pubchem assays (depositor defined):AID2717, AID2721]; format: functional; conditions: Homo sapiens
[5] = molecular target: Trypsin (Sus scrofa, UniProt P00761); assay: porcine trypsin inhibitors, dose response, selectivity assay for Rce1 protease inhibitor project, biochemical, quenched peptide fluorescence, cherry-pick (AID 488789)
Trypsin, sequence (P00761 whole entry): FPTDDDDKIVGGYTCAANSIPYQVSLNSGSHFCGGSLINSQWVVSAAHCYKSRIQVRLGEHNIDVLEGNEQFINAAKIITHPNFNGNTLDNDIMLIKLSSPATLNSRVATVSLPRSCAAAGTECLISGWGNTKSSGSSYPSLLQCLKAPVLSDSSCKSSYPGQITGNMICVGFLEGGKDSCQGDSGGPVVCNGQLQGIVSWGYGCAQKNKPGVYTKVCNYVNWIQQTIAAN

[6] = molecular target: T2, CAAX prenyl protease 2 (Saccharomyces cerevisiae S288c, UniProt Q03530); format: biochemical
T2 sequence (Q03530 whole entry): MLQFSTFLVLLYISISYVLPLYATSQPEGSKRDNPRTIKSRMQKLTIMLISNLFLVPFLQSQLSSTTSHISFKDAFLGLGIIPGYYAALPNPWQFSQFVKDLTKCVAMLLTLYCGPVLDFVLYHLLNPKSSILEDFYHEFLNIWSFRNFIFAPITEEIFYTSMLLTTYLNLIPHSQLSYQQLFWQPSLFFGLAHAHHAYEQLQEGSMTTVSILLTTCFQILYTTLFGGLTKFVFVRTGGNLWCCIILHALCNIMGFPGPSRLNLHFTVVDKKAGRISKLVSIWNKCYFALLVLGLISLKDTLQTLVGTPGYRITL

[7] = molecular target: CAAX prenyl protease 1 (Saccharomyces cerevisiae S288c, UniProt P47154); assay: Ste24 protease inhibitors, dose response, biochemical, S. cerevisiae, plate reader, cherry-pick (AID 488815)
CAAX prenyl protease 1, sequence (P47154 whole entry): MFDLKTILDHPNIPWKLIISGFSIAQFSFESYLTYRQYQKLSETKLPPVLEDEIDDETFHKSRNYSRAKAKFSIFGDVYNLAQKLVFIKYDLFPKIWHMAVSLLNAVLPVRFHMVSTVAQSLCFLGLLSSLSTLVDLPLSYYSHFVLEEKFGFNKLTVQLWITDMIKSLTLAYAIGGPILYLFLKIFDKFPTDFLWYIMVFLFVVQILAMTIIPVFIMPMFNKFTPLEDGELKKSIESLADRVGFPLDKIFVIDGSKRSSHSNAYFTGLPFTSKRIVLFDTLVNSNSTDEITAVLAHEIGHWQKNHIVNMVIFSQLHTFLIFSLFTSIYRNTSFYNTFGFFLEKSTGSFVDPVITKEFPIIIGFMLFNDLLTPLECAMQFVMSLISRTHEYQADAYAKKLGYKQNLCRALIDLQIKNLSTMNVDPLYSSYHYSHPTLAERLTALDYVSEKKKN

[8] = molecular target: CAAX prenyl protease 2 (Homo sapiens, UniProt Q9Y256); assay: human Rce1 protease inhibitors, dose response, biochemical, yeast membranes, quenched-peptide fluorescence, cherry-pick (AID 588849)
CAAX prenyl protease 2 (Homo sapiens, UniProt Q9Y256), sequence (Q9Y256 whole entry): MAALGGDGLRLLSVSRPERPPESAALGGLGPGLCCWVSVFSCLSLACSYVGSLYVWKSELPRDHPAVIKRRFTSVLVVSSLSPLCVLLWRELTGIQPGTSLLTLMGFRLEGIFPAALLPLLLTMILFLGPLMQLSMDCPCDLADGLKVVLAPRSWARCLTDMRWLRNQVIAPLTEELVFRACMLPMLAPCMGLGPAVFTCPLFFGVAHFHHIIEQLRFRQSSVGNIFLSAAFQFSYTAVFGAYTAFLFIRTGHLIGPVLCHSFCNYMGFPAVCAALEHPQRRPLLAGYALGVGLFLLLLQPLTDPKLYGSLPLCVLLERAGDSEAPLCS

[9] = molecular target: T3, Mannose-6-phosphate isomerase (Homo sapiens, UniProt P34949); assay: inhibitors of human PMI, primary screen, biochemical, fluorescence intensity, coupled assay (AID 1209)
T3 sequence (P34949 whole entry): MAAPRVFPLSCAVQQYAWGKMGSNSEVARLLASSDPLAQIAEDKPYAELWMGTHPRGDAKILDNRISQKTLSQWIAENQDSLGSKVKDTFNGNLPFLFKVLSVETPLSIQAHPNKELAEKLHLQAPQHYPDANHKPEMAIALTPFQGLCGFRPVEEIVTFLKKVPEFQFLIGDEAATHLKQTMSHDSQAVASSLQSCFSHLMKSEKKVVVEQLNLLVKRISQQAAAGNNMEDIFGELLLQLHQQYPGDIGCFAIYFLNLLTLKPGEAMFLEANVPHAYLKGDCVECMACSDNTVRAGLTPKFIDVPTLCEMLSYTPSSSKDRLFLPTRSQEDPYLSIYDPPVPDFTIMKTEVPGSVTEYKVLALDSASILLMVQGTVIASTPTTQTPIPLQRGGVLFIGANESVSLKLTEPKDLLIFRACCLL

[10] = molecular target: Induced myeloid leukemia cell differentiation protein Mcl-1 (Homo sapiens, UniProt Q07820); format: functional
[11] = molecular target: T3, Mannose-6-phosphate isomerase; assay: human PMI inhibitors, high substrate, primary screen, biochemical, fluorescence intensity, high mannose 6-phosphate (AID 1220)
[12] = molecular target: Caspase-3 (Homo sapiens, UniProt P42574); format: functional;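 note: Dose-response selectivity test against caspase-3 for candidate inhibitors of sentrin-specific proteases (SENPs)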
Caspase-3, sequence (P42574 29-175 limits assumed): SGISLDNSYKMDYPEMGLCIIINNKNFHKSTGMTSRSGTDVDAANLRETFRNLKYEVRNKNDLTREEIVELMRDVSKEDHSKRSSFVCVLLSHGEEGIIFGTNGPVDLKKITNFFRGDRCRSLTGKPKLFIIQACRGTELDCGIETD
Caspase-3, sequence (P42574 176-277 limits assumed): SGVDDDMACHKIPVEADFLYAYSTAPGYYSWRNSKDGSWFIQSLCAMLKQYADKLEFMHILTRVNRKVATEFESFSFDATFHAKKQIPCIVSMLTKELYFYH

[13] = molecular target: Sentrin-specific protease 7 (Homo sapiens, UniProt Q9BQF6); format: functional;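 note: Luminescence-based dose-response confirmation of ultra-high-throughput screening hits, measuring inhibition of SENP7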
Sentrin-specific protease 7, sequence (Q9BQF6 whole entry): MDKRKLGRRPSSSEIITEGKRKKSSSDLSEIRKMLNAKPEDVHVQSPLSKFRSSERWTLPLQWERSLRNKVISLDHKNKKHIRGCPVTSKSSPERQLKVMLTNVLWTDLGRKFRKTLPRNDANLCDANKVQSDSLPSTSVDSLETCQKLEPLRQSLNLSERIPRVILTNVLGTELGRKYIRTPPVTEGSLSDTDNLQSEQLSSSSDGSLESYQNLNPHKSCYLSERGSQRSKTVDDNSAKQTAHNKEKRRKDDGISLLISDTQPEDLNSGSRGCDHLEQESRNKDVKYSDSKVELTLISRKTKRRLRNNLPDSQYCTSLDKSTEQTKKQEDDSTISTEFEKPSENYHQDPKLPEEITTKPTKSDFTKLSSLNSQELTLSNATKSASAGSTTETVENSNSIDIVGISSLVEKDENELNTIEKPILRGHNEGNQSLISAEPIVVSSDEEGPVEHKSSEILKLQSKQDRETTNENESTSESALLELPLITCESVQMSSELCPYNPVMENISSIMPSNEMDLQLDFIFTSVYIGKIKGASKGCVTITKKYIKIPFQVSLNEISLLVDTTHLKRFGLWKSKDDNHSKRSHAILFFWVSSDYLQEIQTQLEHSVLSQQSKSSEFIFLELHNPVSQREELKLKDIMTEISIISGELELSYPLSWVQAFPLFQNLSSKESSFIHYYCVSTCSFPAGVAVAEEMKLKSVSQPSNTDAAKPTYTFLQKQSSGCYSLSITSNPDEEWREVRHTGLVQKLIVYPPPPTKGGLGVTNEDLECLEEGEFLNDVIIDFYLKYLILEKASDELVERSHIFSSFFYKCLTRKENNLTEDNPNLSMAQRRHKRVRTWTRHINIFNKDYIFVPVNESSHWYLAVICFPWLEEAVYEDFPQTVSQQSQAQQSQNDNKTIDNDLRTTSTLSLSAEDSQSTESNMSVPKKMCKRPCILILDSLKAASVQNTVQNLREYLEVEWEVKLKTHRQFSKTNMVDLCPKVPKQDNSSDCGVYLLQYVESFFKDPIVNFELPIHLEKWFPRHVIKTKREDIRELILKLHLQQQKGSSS

[14] = molecular target: Sentrin-specific protease 6 (Homo sapiens, UniProt Q9GZR1); format: functional;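 note: Luminescence-based dose-response confirmatory assay of SENP6 inhibition, following up an ultra-high-throughput screen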
Sentrin-specific protease 6, sequence (Q9GZR1 whole entry): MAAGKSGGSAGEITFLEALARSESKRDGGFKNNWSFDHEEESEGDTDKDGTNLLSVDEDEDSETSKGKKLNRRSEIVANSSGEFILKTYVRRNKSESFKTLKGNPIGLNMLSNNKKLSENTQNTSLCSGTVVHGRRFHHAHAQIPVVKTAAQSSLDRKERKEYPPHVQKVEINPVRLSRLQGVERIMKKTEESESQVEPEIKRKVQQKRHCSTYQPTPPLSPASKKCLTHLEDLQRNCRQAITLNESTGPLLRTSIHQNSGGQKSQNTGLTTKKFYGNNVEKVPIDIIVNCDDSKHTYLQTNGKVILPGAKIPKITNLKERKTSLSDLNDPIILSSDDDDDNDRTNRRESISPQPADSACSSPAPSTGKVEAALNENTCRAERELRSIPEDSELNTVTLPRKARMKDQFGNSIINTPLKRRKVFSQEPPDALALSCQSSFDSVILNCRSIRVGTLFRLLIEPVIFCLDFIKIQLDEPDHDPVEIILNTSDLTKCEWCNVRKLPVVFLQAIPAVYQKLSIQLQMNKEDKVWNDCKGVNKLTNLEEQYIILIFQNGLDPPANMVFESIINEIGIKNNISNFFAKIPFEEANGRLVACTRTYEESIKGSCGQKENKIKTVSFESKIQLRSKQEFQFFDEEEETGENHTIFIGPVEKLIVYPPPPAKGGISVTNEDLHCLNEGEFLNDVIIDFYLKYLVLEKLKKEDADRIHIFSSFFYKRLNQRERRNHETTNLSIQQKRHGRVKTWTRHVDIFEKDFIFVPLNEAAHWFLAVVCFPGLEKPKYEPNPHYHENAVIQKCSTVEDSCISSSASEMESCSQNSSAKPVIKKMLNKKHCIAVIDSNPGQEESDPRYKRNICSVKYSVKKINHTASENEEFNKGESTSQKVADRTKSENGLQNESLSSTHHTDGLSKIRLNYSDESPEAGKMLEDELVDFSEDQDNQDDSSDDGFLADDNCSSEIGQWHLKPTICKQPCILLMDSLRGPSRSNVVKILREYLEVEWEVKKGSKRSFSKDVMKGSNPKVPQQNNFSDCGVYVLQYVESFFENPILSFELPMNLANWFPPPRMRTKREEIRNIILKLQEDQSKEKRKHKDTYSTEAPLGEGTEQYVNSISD

[15] = molecular target: T4, Sentrin-specific protease 8 (Homo sapiens, UniProt Q96LD8); format: functional;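 note: luminescence read-out of SENP8 inhibition, dose-response confirmation following an ultra-high-throughput screen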
T4 sequence (Q96LD8 whole entry): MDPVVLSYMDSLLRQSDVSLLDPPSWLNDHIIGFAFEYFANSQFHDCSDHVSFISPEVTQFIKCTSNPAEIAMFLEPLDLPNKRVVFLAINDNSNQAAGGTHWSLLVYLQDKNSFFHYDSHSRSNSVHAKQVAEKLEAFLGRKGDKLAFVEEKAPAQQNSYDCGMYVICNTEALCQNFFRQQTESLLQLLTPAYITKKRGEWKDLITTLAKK

[16] = Luminescence-based cell-based high throughput dose response assay to identify activators of the DAF-12 from the parasite S. stercoralis (ssDAF-12).; format: functional
[17] = molecular target: T5, Oxysterols receptor LXR-beta (Homo sapiens, UniProt P55055); assay: LXR agonists, Gal4 luciferase reporter, dose response, counter-screen for ssDAF-12 agonist project, cell-based, luminescence, HEK293, S. stercoralis campaign (AID 720737); format: functional; conditions: read-out: IC50 (the source's name)
T5 sequence (P55055 whole entry): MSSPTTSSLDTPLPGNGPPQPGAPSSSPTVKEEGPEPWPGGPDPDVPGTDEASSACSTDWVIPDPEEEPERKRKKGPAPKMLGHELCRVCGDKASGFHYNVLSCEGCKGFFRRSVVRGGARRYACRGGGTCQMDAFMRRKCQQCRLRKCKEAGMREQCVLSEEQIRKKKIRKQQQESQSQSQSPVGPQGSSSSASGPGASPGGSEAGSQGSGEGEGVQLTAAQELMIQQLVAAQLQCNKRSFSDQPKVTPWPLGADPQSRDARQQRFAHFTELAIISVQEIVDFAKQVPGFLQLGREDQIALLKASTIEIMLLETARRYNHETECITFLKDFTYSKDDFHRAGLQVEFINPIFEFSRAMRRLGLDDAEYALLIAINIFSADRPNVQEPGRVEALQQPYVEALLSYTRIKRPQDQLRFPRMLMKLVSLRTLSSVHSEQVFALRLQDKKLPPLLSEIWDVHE

[18] = molecular target: T5, Oxysterols receptor LXR-beta; format: functional, cell-based
[19] = cells
[20] = test system: BJ; assay: cytotoxicity toward BJ-TERT fibroblasts, dose response, cell-based, RAS-independent, luminescence (AID 1933); format: functional; conditions: Homo sapiens
[21] = test system: BJ; assay: cells; format: functional, cell-based; conditions: Homo sapiens
[22] = test system: BJ; assay: cytotoxicity toward BJ-TERT-LT-ST fibroblasts, dose response, cell-based, RAS-independent, luminescence (AID 1935); format: functional; conditions: Homo sapiens;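 note: BJ fibroblasts immortalized with TERT plus LT and ST oncogenes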
[23] = cytotoxicity toward DRD oncogenic fibroblasts, dose response, cell-based, non-viral oncogenic, luminescence (AID 1934); format: functional; conditions: Homo sapiens
[24] = test system: BJ; assay: cytotoxicity toward Ras-transformed BJeLR fibroblasts, dose response, cell-based, alamar blue fluorescence, cherrypicked samples (AID 2631); format: functional; conditions: Homo sapiens;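 note: confirmatory dose-response assay in RAS-dependent BJ fibroblasts engineered with TERT, LT and ST, with cytotoxicity read by fluorescence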
[25] = NIH-3T3 fibroblast cytotoxicity, dose response, cytotoxicity control, cell-based, fluorescence, Alamar Blue, secondary assay (AID 2327); format: functional;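 note: NIH-3T3 mouse fibroblasts cultured with fluconazole at 8 µg/mL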
[26] = C. albicans growth with fluconazole, confirmation, fluorescence, retest (AID 2467); format: functional, cell-based
[27] = microbe, parasite or virus in culture; format: functional; conditions: Mycobacterium tuberculosis
[28] = molecular target: Serine/threonine-protein phosphatase (Candida dubliniensis (strain CD36 / CBS 7987 / NCPF 3949 / NRRLY-17841) (Yeast), UniProt B9W6M3); assay: calcineurin pathway inhibitors in yeast reporter, dose response, S. cerevisiae, CDRE-lacZ, luminescence, secondary (AID 2388); format: functional, cell-based;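 note: yeast reporter cells carrying a calcineurin-responsive lacZ construct stimulated with calcium chloride; luminescent beta-galactosidase reporter signal in whole cells rather than isolated phosphatase activity; potency for inhibition where a drop in reporter signal means calcineurin blockade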
Serine/threonine-protein phosphatase, sequence (B9W6M3 whole entry): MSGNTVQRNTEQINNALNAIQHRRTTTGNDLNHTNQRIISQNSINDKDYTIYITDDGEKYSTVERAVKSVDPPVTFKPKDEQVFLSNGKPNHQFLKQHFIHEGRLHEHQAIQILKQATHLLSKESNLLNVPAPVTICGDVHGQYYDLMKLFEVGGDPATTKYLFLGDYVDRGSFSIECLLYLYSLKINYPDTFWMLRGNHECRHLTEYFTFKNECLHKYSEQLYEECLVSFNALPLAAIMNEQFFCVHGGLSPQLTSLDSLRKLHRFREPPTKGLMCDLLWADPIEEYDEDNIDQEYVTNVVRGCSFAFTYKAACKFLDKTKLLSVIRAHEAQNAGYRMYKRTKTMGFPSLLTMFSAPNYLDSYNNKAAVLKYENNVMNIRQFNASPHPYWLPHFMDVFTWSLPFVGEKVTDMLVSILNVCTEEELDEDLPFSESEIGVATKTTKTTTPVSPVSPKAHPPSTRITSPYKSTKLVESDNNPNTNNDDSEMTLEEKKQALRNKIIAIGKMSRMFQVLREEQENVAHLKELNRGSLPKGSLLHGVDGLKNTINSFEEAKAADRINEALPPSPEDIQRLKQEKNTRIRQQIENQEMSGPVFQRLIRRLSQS

[29] = molecular target: ATP-dependent molecular chaperone HSP82 (Candida albicans (strain WO-1) (Yeast), UniProt C4YTQ8); assay: loss of DOC-induced GRE-beta-galactosidase reporter signal, dose response, Hsp90 inhibitor project, S. cerevisiae, luminescence (AID 2400); format: functional, cell-based;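 note: beta-galactosidase luminescence from glucocorticoid response element reporter as proxy for Hsp90 function; inhibitor potency where signal loss means Hsp90 inhibition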
ATP-dependent molecular chaperone HSP82, sequence (C4YTQ8 whole entry): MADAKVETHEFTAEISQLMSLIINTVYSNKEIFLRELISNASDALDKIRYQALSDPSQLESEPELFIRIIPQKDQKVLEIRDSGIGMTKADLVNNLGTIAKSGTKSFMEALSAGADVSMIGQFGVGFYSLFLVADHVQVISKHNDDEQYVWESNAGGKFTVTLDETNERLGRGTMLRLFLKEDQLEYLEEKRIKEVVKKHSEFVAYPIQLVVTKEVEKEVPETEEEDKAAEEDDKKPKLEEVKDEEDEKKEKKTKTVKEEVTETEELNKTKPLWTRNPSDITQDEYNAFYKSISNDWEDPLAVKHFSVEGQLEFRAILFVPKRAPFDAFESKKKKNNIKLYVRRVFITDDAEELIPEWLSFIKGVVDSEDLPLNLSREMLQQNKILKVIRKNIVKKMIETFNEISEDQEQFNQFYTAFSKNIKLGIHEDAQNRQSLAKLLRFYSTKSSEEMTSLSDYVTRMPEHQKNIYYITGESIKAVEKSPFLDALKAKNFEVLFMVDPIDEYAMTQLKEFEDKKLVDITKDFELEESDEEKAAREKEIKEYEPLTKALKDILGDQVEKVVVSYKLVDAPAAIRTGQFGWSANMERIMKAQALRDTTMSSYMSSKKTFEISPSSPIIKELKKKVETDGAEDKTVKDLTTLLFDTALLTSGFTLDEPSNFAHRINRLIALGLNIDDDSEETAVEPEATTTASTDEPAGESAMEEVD

Cc1cccc(-c2oc3ccccc3c2C#CCCCCO)c1
EC50 [1]: 4.57 µM (active)
EC50 [2]: > 150 µM (not active)
EC50 [3]: 7.64 µM (active)
AC50 [4]: 6.31 µM (active)
AC50 [5]: 3.53 µM (active)
AC50 [6]: 7.08 µM (active)
AC50 [7]: 3.56 µM (active)
AC50 [8]: 12.9 µM (active)

COc1ccc(-n2nc3cc(C)c(N)c(Br)c3n2)cc1
IC50 [9]: > 50 µM (not active)
IC50 [10]: 2.53 µM (active)
IC50 [11]: > 50 µM (not active)
IC50 [12]: 35.5 µM (active)
IC50 [13]: 5.86 µM (active)
IC50 [14]: 13.7 µM (active)
IC50 [15]: 41.3 µM (active)
IC50 [16]: > 67.5 µM (inactive)
EC50 [17]: > 67.5 µM (inactive)
EC50 [18]: > 67.5 µM (inactive)
EC50 [19]: > 67.5 µM (inactive)

Cc1ccccc1Nc1nc(N)nc(CCl)n1
EC50 [20]: 0.369 µM (inconclusive)
EC50 [21]: 7.39 µM (inconclusive)
EC50 [22]: > 150 µM (not active)
EC50 [23]: 4.85 µM (active)
EC50 [24]: 13.6 µM (active)

Cc1c(Cl)ccc2c1NC(=O)[C@]21N[C@@H](Cc2ccccc2)[C@H]2C(=O)N(c3ccc(F)cc3)C(=O)[C@H]21
EC50 [25]: > 150 µM (inactive)
EC50 [26]: 0.206 µM (active)
CC50 [27]: 33 µM (active)
EC50 [28]: > 180 µM (inactive)
EC50 [29]: > 160 µM (inactive)

Cc1ccc(OCc2nc(-c3ccccc3)no2)cc1
IC50 [12]: 42.1 µM (active)
IC50 [13]: 11.6 µM (active)
IC50 [14]: 47.1 µM (active)
IC50 [15]: 69.9 µM (active)

CCOc1ccc(S(=O)(=O)Nc2cc(OC)c(OC)cc2C(=O)O)cc1
AC50 [5]: 7.53 µM (active)
AC50 [6]: 9.8 µM (active)
AC50 [8]: 4.23 µM (active)
